We go through two compounds from ChEMBL document CHEMBL5360601, “Discovery of Potent, Dual-Inhibitors of Diacylglycerol Kinases Alpha and Zeta Guided by Phenotypic Optimization” (ACS Med Chem Lett, 2023).

A short description of series [1]: Metabolic stability in mouse liver microsomes assessed as parent compound remaining. Type of series: ADME, Microsome. On the technique in general: Microsomes from liver hold many membrane-bound enzymes, among them those of drug oxidation.
The nature of series [2]: Metabolic stability in human liver microsomes assessed as parent compound remaining. Type of series: ADME, Microsome.
Series [3] addresses T1, Diacylglycerol kinase alpha (Homo sapiens, UniProt P23743). As to the kind of experiment: Inhibition of human DGK alpha using 1, 2-Dilauroyl-sn-glycerol as substrate by ADP-Glo assay.
The target in series [4] is Diacylglycerol kinase beta (Homo sapiens, UniProt Q9Y6T7). As to the kind of experiment: Inhibition of human DGK beta using 1, 2-Dilauroyl-sn-glycerol as substrate by ADP-Glo assay. For orientation: ADP-Glo first removes unused ATP, then detects ADP through luciferase.
Series [5] deals with Diacylglycerol kinase gamma (Homo sapiens, UniProt P49619). As to the kind of experiment: Inhibition of human DGK gamma using 1, 2-Dilauroyl-sn-glycerol as substrate by ADP-Glo assay.
Sequence of Diacylglycerol kinase gamma (P49619 whole entry): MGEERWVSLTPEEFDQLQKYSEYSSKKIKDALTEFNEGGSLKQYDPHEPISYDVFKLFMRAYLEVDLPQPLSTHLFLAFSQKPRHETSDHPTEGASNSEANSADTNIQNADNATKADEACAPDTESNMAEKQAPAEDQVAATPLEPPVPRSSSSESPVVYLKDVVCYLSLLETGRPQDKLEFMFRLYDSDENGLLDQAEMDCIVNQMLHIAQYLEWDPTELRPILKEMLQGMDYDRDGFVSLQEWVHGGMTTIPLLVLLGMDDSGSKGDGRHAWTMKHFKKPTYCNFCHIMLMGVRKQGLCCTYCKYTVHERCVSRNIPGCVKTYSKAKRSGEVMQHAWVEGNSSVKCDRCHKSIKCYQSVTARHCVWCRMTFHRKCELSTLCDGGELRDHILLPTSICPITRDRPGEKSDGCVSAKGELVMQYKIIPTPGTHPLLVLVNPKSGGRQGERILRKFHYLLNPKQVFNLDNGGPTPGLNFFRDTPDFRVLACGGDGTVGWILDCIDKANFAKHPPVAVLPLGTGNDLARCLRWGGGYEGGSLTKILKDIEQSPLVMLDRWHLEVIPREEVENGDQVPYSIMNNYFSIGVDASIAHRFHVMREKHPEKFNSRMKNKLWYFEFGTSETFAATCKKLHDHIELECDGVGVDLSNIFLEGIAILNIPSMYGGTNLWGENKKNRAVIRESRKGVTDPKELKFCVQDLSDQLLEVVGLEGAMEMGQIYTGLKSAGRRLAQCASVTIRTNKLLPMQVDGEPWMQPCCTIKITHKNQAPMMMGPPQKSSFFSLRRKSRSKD
The target of series [6] is T2, Diacylglycerol kinase kappa (Homo sapiens, UniProt Q5KSL6).
T2 sequence (Q5KSL6 whole entry): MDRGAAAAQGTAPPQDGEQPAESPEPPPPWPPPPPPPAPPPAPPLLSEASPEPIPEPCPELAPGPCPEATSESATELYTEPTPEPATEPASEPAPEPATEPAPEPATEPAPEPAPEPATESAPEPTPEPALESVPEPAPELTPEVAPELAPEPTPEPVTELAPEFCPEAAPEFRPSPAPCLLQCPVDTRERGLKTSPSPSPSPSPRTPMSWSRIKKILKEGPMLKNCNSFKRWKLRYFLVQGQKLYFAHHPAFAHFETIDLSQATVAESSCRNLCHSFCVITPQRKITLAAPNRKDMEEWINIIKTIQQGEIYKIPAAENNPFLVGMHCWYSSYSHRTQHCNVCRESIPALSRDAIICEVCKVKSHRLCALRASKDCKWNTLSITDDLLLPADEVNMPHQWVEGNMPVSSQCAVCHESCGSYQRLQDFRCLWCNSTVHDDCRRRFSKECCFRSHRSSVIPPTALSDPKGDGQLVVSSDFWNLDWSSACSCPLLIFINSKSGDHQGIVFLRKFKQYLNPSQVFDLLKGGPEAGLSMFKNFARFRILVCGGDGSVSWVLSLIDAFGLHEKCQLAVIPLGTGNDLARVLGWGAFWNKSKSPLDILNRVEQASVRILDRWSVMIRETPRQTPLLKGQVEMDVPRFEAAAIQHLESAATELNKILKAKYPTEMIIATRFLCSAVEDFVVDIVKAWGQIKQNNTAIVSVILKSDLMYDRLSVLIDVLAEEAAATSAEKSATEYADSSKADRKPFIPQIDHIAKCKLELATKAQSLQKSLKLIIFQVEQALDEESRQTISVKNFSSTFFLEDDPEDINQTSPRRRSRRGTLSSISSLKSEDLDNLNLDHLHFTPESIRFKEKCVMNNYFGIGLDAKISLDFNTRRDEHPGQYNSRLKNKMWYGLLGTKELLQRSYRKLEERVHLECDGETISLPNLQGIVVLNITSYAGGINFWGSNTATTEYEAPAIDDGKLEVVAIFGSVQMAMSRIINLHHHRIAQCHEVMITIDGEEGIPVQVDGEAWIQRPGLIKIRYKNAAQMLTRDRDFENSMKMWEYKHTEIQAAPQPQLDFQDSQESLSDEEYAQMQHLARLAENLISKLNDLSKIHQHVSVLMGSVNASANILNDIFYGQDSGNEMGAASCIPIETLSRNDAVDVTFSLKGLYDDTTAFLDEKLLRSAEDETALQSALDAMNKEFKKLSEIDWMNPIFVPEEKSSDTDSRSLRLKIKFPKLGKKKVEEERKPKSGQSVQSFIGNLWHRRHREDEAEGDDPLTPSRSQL
As to the kind of experiment: Inhibition of human DGK kappa using 1, 2-Dilauroyl-sn-glycerol as substrate by ADP-Glo kinase assay.

The target in series [7] is Diacylglycerol kinase zeta (Homo sapiens, UniProt Q13574). As to the kind of experiment: Inhibition of human DGK zeta using 1, 2-Dilauroyl-sn-glycerol as substrate by ADP-Glo kinase assay.
Sequence of Diacylglycerol kinase zeta (Q13574 whole entry): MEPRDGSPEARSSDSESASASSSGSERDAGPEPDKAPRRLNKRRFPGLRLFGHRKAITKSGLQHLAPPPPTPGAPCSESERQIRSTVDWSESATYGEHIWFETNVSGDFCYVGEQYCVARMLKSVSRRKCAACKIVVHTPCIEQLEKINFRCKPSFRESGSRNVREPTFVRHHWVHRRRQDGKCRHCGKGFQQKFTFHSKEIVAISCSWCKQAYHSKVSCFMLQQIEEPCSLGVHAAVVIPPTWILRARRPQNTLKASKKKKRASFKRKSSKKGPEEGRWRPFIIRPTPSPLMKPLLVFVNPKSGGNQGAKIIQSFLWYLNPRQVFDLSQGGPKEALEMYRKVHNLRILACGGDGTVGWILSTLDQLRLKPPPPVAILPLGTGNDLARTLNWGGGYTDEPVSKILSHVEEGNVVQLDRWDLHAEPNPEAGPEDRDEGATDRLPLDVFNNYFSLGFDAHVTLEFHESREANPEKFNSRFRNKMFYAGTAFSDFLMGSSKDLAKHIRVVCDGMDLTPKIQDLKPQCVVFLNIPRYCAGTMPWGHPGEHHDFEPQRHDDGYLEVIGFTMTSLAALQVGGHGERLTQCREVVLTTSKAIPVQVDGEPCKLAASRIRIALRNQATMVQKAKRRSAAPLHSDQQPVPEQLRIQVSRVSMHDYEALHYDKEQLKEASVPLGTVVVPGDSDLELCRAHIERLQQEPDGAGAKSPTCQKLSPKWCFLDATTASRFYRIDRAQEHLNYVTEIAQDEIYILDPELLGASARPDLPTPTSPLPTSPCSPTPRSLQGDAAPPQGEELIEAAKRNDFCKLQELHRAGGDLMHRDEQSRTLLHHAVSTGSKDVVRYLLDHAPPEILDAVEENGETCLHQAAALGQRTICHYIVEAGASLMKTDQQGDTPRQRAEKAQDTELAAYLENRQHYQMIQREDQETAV
For series [8], the target named is Diacylglycerol kinase iota (Homo sapiens, UniProt O75912). As to the kind of experiment: Inhibition of human DGK iota using 1, 2-Dilauroyl-sn-glycerol as substrate by ADP-Glo kinase assay.
Sequence of Diacylglycerol kinase iota (O75912 whole entry): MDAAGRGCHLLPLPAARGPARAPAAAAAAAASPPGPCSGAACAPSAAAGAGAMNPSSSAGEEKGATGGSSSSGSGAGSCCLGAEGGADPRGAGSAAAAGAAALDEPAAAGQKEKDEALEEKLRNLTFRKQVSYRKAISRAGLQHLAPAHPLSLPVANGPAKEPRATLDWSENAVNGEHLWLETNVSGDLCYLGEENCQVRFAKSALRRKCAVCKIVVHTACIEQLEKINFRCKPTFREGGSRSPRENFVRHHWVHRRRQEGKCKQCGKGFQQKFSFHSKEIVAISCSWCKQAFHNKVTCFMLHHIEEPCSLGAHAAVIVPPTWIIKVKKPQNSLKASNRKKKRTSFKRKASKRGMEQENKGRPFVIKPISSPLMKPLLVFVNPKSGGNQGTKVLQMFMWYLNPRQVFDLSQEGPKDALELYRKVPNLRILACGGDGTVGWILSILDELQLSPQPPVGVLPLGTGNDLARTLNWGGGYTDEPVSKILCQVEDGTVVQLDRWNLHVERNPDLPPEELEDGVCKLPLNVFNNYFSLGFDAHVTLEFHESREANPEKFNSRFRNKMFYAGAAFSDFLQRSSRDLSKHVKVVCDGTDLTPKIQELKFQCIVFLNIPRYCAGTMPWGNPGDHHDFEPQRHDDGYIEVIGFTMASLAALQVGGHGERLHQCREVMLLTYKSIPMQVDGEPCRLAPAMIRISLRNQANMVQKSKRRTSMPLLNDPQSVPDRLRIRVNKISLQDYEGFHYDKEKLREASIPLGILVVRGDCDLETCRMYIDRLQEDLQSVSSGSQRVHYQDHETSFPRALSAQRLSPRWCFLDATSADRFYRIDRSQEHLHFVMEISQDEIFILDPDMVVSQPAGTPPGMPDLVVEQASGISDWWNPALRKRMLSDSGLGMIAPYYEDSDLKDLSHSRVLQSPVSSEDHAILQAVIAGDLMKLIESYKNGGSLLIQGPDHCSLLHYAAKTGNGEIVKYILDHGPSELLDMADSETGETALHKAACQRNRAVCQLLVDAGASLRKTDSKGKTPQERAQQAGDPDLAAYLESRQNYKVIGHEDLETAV
For series [9], the system named is Mus musculus. As to the kind of experiment: Immunostimulatory activity in OT-1 mouse model assessed as increase in activated effector T-cells at 10 mg/kg measured after 24 hrs by flow cytometry analysis. Type of series: functional, organism-based. For orientation: Flow cytometry measures light scatter and fluorescence of single cells or particles in a stream.
For series [10], the species on record is Mus musculus. As to the kind of experiment: Immunostimulatory activity in OT-1 mouse model assessed as increase in activated effector T-cells measured after 24 hrs in presence of SIINFEKL antigen by flow cytometry analysis. Format: functional, organism-based. To be noted: dose 1-10 mg/kg.
Series [11] is described as follows: AUClast in C57BL6 mouse at 1 mg/kg, iv administered as bolus dose measured upto 72 hrs by LC/MS/MS analysis. Type of series: ADME, organism-based. Details: dose 1 mg/kg, time < 72 hrs, route iv. To be noted: in vivo.
The nature of series [12]: Half life in C57BL6 mouse at 1 mg/kg, iv administered as bolus dose measured upto 72 hrs by LC/MS/MS analysis. To be noted: in vivo. Format: ADME, organism-based.
Series [13] in a line: Clearance in C57BL6 mouse at 1 mg/kg, iv administered as bolus dose measured upto 72 hrs by LC/MS/MS analysis. Format: ADME, organism-based. To be noted: in vivo.
A short description of series [14]: Volume of distribution at steady state in C57BL6 mouse at 1 mg/kg, iv administered as bolus dose measured upto 72 hrs by LC/MS/MS analysis. To be noted: in vivo, read-out: Vdss. Format: ADME, organism-based.
Series [15] can be described thus: Cmax in C57BL6 mouse at 5 mg/kg, po administered as bolus dose measured upto 72 hrs by LC/MS/MS analysis. Type of series: ADME, organism-based. On the set-up: dose 5 mg/kg, time < 72 hrs, route po. To be noted: in vivo.
Series [16] can be described thus: Tmax in C57BL6 mouse at 5 mg/kg, po administered as bolus dose measured upto 72 hrs by LC/MS/MS analysis. Format: ADME, organism-based. To be noted: in vivo.
Series [17] is described as follows: AUClast in C57BL6 mouse at 5 mg/kg, po administered as bolus dose measured upto 72 hrs by LC/MS/MS analysis. Details: dose 5 mg/kg, time < 72 hrs, route po. Format: ADME, organism-based. To be noted: in vivo.
A short description of series [18]: Oral bioavailability in C57BL6 mouse at 5 mg/kg administered as bolus dose measured upto 72 hrs by LC/MS/MS analysis. Type of series: ADME, organism-based. To be noted: in vivo.
A short description of series [19]: Inhibition of DGK in human whole blood cell assessed as increase in IFNgamma level incubated for 1 hr followed by anti-human CD3/ antiCD28 mAB stimulation and measure after 24 hrs by AlphaLISA assay. Type of series: tissue-based.
The nature of series [20]: Inhibition of DGK in human whole blood cell assessed as increase in pERK level incubated for 1 hr followed by anti-human CD3 stimulation and measure after 15 mins by AlphaLISA assay. Format: tissue-based.
Series [21] is described as follows: Inhibition of DGK in mouse T cell assessed as increase in IFNgamma level incubated for 1 hr by AlphaLISA assay. Format: cell-based.
Series [22] deals with Raji. As to the kind of experiment: IL2 production in PD-L1 positive human Raji cells measured after 24 hrs by Cell titer glo assay.
Series [23] concerns Raji. As to the kind of experiment: IL2 production in PD-L1 negative human Raji cells measured after 24 hrs by Cell titer glo assay.
Series [24] is described as follows: Induction of proliferation of human CD8-positive T cell measured after 24 hrs by Cell titer glo assay.
The target in series [25] is T1, Diacylglycerol kinase alpha. As to the kind of experiment: Inhibition of DGK alpha (unknown origin).

The structures appear in SMILES notation. Calls of active or inactive are those of the source. The calls are words filed in the database; no cut-off is given here.

T1 sequence (P23743 whole entry): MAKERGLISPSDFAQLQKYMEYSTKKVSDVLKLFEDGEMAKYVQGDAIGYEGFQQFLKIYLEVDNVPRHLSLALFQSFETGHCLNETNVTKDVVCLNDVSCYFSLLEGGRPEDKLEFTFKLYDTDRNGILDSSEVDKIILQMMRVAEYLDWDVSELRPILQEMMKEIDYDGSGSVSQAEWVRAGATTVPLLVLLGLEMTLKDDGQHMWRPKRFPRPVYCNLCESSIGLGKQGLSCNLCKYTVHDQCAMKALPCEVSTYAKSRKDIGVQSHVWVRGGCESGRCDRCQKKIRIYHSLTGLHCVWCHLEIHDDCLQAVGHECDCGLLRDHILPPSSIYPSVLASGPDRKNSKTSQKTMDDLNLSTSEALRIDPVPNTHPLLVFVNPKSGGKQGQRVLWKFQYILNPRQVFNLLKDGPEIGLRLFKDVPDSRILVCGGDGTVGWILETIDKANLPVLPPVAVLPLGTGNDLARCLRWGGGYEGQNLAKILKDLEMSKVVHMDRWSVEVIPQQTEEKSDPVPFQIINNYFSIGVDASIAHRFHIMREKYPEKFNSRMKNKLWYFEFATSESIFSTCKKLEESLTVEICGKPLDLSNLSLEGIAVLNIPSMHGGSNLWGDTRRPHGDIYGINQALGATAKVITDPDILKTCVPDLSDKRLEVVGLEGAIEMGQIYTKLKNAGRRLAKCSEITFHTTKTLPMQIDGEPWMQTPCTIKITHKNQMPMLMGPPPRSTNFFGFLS

A word on the IC50: it is the concentration needed to halve the response being measured. A low value points to greater potency. What is called AUC(0-t) is exposure summed from dosing to a finite time, without extrapolation to infinity. Broadly, the half-life is how long it takes for the measured level to halve. High values mean slow decline, low ones rapid decline. Usually clearance stands for a measure of how efficiently the substance is removed, as volume per time. One may read the Cmax as the maximum level reached in the sampled fluid or tissue. As usually defined, the Tmax is the time at which the peak concentration occurs. In general, bioavailability refers to the share of a dose that reaches the circulation, judged against a reference dose that is usually intravenous. A higher bioavailability goes with good availability. In general, EC50 refers to the concentration needed to bring the measured effect to its halfway point. With `Cn1c(=O)c([N+](=O)[O-])c(N2CCN(C(c3ccc(F)cc3)c3ccc(F)cc3)CC2)c2nc(C#N)ccc21`, the Stability worked out at 99% in [1] and 90% in series [2]. The IC50 in [3] was found to be 5 nM; in series [4] it was 1000 nM; in series [5], 680 nM; in [6], 4600 nM; in [7], 2 nM; in series [8], 3 nM. Further, the result with Mus musculus [9] was inactive. Besides, in the series listed under Mus musculus [10], the Activity result was “Dose-Dependent Effect”. For the same compound, the exposure AUC(0-t) at 72 h amounted to 14.8 µM·h in series [11] and 48 µM·h in [17]. The compound also had a half-life in [12] of 22.5 h. The same compound yielded a clearance in [13] of 1.9 mL/min/kg. Besides, the Vd in series [14] turned out to be 3.9 L/kg. This compound yielded a Cmax in series [15] of 1080 nM. Moreover, the Tmax in [16] worked out at 3 h. The same compound yielded a bioavailability in series [18] of 65%. Besides, the concentration for a half-maximal effect (EC50) worked out at 280 nM in [19]; 520 nM in series [20]; 340 nM in series [21]; 37 nM with Raji [22]; 37 nM in the series on Raji [23]; 65 nM in [24].
With `Cc1nc2sccn2c(=O)c1CCN1CCC(=C(c2ccc(F)cc2)c2ccc(F)cc2)CC1` [RITANSERIN], the 50% inhibitory concentration (IC50) is > 5000 nM in series [3]; > 10000 nM in series [4]; > 10000 nM in series [5]; > 10000 nM in series [7]; > 10000 nM in series [8]; 15100 nM in [25]. Also, the EC50 in [20] is > 20000 nM; in [24], > 10000 nM.
